The results in this text go back to patent US20250074869A1, “AMINO-COMBRETASTATIN DERIVATIVE AND USE THEREOF” (priority 2020, published 2025).

Structures can show the parent of a compound that is named as a salt.

One data set concerns Male ICR mice. Put plainly: Acute toxicity study in animals (oral LD50). The settings on record: mouse, in vivo. From the text:
(§1) Male ICR mice weighed 23±2 g, clean grade, were selected. The route of administration was intragastric (ig) administration, which is consistent with the intended oral route for clinical use.
(§2) Mice were randomly divided into 8 groups by weight: the blank control group, Example 1 group, Example 5 group, Example 11 group, Example 12 group, Example 13 group, Example 14 group and control group. Among these, the control group received amino-combretastatin serinamide hydrochloride as the control (hereinafter referred to as control).
(§3) Preparation of the compounds used in the example groups: The compounds obtained in Example 1, Example 3. Example 4. Example 5. Example 6. Example 7. Example 8. Example 9. Example 10. Example 11. Example 12, Example 13 and Example 14 were prepared into hydrochloride salts according to the method disclosed in Example 2.
(§4) Pre-treatment: […] were deprived of food but not water for 12 h before the study. and randomized into groups of 10 by body weight. The treatment groups were intragastrically administered once at 0.25 mL/10 g body weight, and the water control group received an equivalent amount of distilled water through intragastric administration. The LD100 value (the amount for 100% death), LD0 (the amount for 0 death) and the corresponding range r value between the dose groups were calculated, and LD50 was determined.
(§5) Study procedures: 160 mice were randomized into 8 groups of 20 mice by body weight. After deprivation of food but not water for 12 h before the study, each group was intragastrically given the compound once at 0.3 mL/10 g body weight. Since no death was observed after 12 h, the second dose was given. The control group received equivalent volumes of water. The daily dose of each group was calculated; the control group received equal volumes of water and was subjected to an acute toxicity study for observation and the body weight of the mice was recorded daily for 14 days.

The test system of a further data set is colon cancer cells HT-29. The experiment in a line: Efficacy study in nude mouse with xenograft tumor, HT-29. Type of data set: in vivo, human. Particulars: BALB/cA-nude mice, subcutaneous xenograft, 50 mg/kg intragastric once daily for 21 days, dosed as hydrochloride. The protocol:
(§6) BALB/cA-nude mice aged 6 to 7 weeks were purchased from Shanghai Slac Laboratory Animal Co., Ltd. The nude mice were subcutaneously grafted with human liver cancer cells Bel-7402, colon cancer cells HT-29, gastric cancer cells SGC-7901 or non-small cell lung cancer cells A549. After the tumor grew to 100 to 250 mm^3, the animals were randomized (d0). The tumor volumes and body weights were measured twice or thrice a week, and the data were recorded. Tumor volume (V) was calculated as follows:
(§7) [formula] • wherein a and b represent length and width, respectively; T and C are the tumor volumes at the end of study; T0 and C0 are the tumor volumes at the start of study.
(§8) All samples were diluted to the desired concentration with 50% PEG400 in distilled water. The regimen was once daily for 21 days at 50 mg/kg mouse body weight through intragastric administration, and 50 mg/kg for the control. The compounds obtained in Examples 1, 3, 4, 5, 6, 7, 8, 9, 10, 11, 12, 13 and 14 and the control were prepared into corresponding hydrochloride as the dosing compounds according to the method disclosed in Example 2 to investigate their efficacy on human liver cancer cell Bel-7402, colon cancer cell HT-29, gastric cancer cell SGC-7901 or non-small cell lung cancer cell A549 xenograft tumors in nude mice and to compare the compounds with the control (prepared as in Example 16).
(In general: In xenograft studies the graft and the host belong to different species.)

The test system of data set [1] is gastric cancer cells SGC-7901. Put plainly: Efficacy study in nude mouse with xenograft tumor, SGC-7901. Type of data set: in vivo, human. The settings on record: BALB/cA-nude mice, subcutaneous xenograft, 50 mg/kg intragastric once daily for 21 days, dosed as hydrochloride. How it is done: as §6, §7, §8
In data set [2] the test system is non-small cell lung cancer cells A549. Put plainly: Efficacy study in nude mouse with xenograft tumor, A549. Type of data set: in vivo, human. The settings on record: BALB/cA-nude mice, subcutaneous xenograft, 50 mg/kg intragastric once daily for 21 days, dosed as hydrochloride. How it is done: as §6, §7, §8
Data set [3] concerns human liver cancer cells Bel-7402. Put plainly: Efficacy study in nude mouse with xenograft tumor, Bel-7402. Type of data set: in vivo. Particulars: BALB/cA-nude mice, subcutaneous xenograft, 50 mg/kg intragastric once daily for 21 days, dosed as hydrochloride. The protocol: as §6, §7, §8
Data set [4] in a line: Acute toxicity study in animals (oral LD50). The settings on record: mouse, in vivo, male ICR mice, intragastric administration, observed 14 days, hydrochloride salts.
Excerpt: as §1, §2, §3, §4, §5

Usually LD50 stands for the dose at which mortality reaches 50%. As for “amino-combretastatin serinamide hydrochloride [Control, reference compound]”, the 50% lethal dose (LD50) in the data set on Male ICR mice turned out to be 200 mg/kg. In the data set with colon cancer cells HT-29, the “% tumor inhibition (D21) HT-29” value came to 42%. Besides, the “% tumor inhibition (D21) SGC-7901” value in data set [1] was 34%. Besides, the “% tumor inhibition (D21) A549” value in data set [2] was 30%. For the same compound, the “% tumor inhibition (D21) Bel-7402” value in data set [3] is recorded as 39%.
With `CCCN(CCC)CCC(=O)Nc1cc(/C=C\c2cc(OC)c(OC)c(OC)c2)ccc1OC` [Hydrochloride of Example 3], the 50% lethal dose (LD50) at 14 days in data set [4] came out at 1000 mg/kg.
On the same count and under the same terms, as for `CCOc1ccc(/C=C\c2cc(OC)c(OC)c(OC)c2)cc1NC(=O)CCN(CCO)CCO` [Hydrochloride of Example 11], the figure is 1100 mg/kg; as for `CCCN(CCC)CCC(=O)Nc1cc(/C=C\c2cc(OC)c(OC)c(OC)c2)ccc1OC(F)F` [Hydrochloride of Example 8], 1100 mg/kg.
In the case of `CCOc1ccc(/C=C\c2cc(OC)c(OC)c(OC)c2)cc1NC(=O)CCN(CC)CC` [Hydrochloride of Example 4], the LD50 at 14 days in data set [4] is 1100 mg/kg.
